In paper PMC9147975, “New Antibacterial Chloro-Containing Polyketides from the Alga-Derived Fungus Asteromyces cruciatus KMM 4696” (Journal of Fungi, 2022):
Entries after “also recorded” stand apart in the source; their conditions may differ.

Legend:
[1] = test system: human keratinocytes HaCaT co-cultivated with S. aureus; experiment: Co-cultivation of HaCaT cells with S. aureus, LDH release; format: cell-based; settings: 10 μM, 48 h co-cultivation
Experimental: Co-cultivation of HaCaT cells with S. aureus was carried out as described. HaCaT cells at a concentration of 1.5×10^4 cells per well were seeded in 96-well plates for 24 h. Then, culture medium in each well was changed with S. aureus suspension (10^2 CFU/mL) in full DMEM medium. Fresh DMEM medium without S. aureus suspension was added in other wells as needed. Compounds 1–6 at a concentration of 10 μM were added in wells after 1 h. HaCaT cells and S. aureus were cultured at 37 °C in a humidified atmosphere with 5% (v/v) CO2 for 48 h. After incubation, the plate was centrifuged at 250× g for 10 min and 50 µL of supernatant from each well was transferred into the corresponding wells of an optically clear 96-well plate. An equal volume of the reaction mixture (50 µL) from LDH Cytotoxicity Assay Kit (Abcam, Cambridge, UK) was added to each well and incubated for up to 30 min at room temperature. The absorbance of all samples was measured at λ = 450 nm using a Multiskan FC microplate photometer (Thermo Scientific, Waltham, MA, USA) and expressed in optical units (o.u.).

[2] = target: T1, sortase A from Staphylococcus aureus (Staphylococcus aureus, UniProt Q2FV99); experiment: Sortase activity inhibition assay (SensoLyte 520 Sortase A Activity Assay Kit); format: biochemical; settings: 50 μM; for decrease of sortase A activity / effect on sortase A enzymatic activity (in words): after 10 min of incubation with the substrate
T1 construct: purchased AnaSpec AS-72229
Experimental: The enzymatic activity of sortase A from Staphylococcus aureus was determined using SensoLyte 520 Sortase A Activity Assay Kit * Fluorimetric * (AnaSpec AS-72229, AnaSpec, San Jose, CA, USA) in accordance with the manufacturer’s instructions. […] DMSO at a concentration of 0.8% was used as a control. PCMB (4-(hydroxymercuri)benzoic acid) was used as sortase A enzyme activity inhibitor. Fluorescence was measured with a plate reader PHERAStar FS (BMG Labtech, Offenburg, Germany) for 60 min, with a time interval of 5 min. The data were processed with MARS Data Analysis v. 3.01R2 (BMG Labtech, Offenburg, Germany). The results were presented as relative fluorescent units (RFUs) and percentage of the control data, calculated using STATISTICA 10.0 software.

[3] = test system: biofilm formation of Staphylococcus aureus; experiment: Biofilm formation, crystal violet biofilm assay; format: cell-based; settings: for inhibition at 100 µM: Staphylococcus aureus; for formation of biofilms (in words): 100 μM
Experimental: The inhibition of the reducing biofilm formation and growth was assessed using the crystal violet biofilm assay as described. Mueller Hinton broth was inoculated with 10^9 CFU/mL of S. aureus overnight cultures. A total of 90 µL of this cell suspension was then dispensed into 96-well microtiter plates containing 10 µL of different concentrations of compounds 1–6. After 24 h growth at 37 °C the plates were washed with PBS to remove unbound cells. Next, the wells were stained with 0.1% crystal violet solution for 10 min at 37 °C. At the completion of the incubation, plates were washed 3 times with PBS and dried. Then, the crystal violet dye from the biofilm was solubilized with 100 µL of ethanol. A total of 100 µL of this solution was then moved to a new microtiter plate for absorbance measurement at λ = 570 nm. The results were reported as percent inhibition normalized to the wild-type control.

[4] = test system: Staphylococcus aureus ATCC 21027; experiment: Antimicrobial activity, bacterial growth (OD620); format: cell-based; settings: for inhibition at 100 µM: read-out: inhibition of S. aureus growth; for change of antimicrobial activity on decrease of concentration: decrease of concentration from 100 μM (two-fold for compound 6)
Experimental: The antibacterial activity of compounds 1–6 was evaluated as described previously. The bacterial culture of Staphylococcus aureus ATCC 21027 (Collection of Marine Microorganisms PIBOC FEBRAS) was cultured in a Petri dish at 37 °C for 24 h on solid medium Mueller Hinton broth with agar—16.0 g/L. The assays were performed in 96-well microplates in appropriate Mueller Hinton broth. Each well contained 90 µL of bacterial suspension (10^9 CFU/mL). Then, 10 µL diluted at concentrations from 1.5 µM to 100.0 µM using two-fold dilution was added to compounds 1–6 (DMSO concentration < 1%). Culture plates were incubated overnight at 37 °C, and the OD620 was measured using a Multiskan Spectrum spectrophotometer (Thermo Labsystems Inc., Beverly, MA, USA). Gentamicin was used as a positive control in concentration 1 mg/mL; 1% DMSO solution in PBS as a negative.

[5] = test system: biofilm formation of Staphylococcus aureus; parameters: method as in PMID 34677452; settings: cited from earlier work
[6] = target: T1, sortase A from Staphylococcus aureus; settings: cited from earlier work
[7] = test system: human keratinocytes HaCaT co-cultivated with S. aureus; parameters: method as in PMID 34677452; settings: cited from earlier work
[8] = test system: Staphylococcus aureus ATCC 21027; parameters: method as in PMID 34677452; settings: cited from earlier work
[9] = Staphylococcus aureus, ATCC21027, 100 μM

T1 sequence (Q2FV99 whole entry): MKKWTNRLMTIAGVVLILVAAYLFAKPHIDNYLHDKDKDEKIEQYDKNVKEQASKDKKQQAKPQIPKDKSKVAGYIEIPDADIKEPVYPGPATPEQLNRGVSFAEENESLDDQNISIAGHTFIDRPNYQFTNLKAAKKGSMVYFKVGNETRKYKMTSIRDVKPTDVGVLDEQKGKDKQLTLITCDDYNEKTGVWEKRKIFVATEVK

In the case of `C=C(C)C#CC1=C[C@@H](O)[C@H](O)[C@@H](Cl)[C@@H]1O` (relative stereo) [Compound 5, Acrucipentyn E], the “effect on LDH release (in words)” value [1] is reported as “greatest effect”, the “decrease of sortase A activity” value [2] is reported as 21% and the “effect on biofilm formation, comparison in words” value [3] is reported as “weaker inhibitory effect”. For the same molecule, the inhibition at 100 µM [3] was 30% and the inhibition at 100 µM [4, 9] was ≤ 50%.
In the case of `C=C(C)C#C[C@@H]1C[C@H](O)[C@H](Cl)[C@@H](O)[C@H]1O` (relative stereo) [Compound 2, Acrucipentyn B], the “effect on LDH release (in words)” value [1] is reported as “greatest effect; also recorded: significant activity”, the “effect on sortase A enzymatic activity (in words)” value [2] is reported as “inactive; also recorded: did not have any effect” and the “effect on biofilm formation, comparison in words” value [3] is reported as “did not show a significant effect”. The inhibition at 100 µM [3] was 30% and the inhibition at 100 µM [4, 9] was ≤ 50%.
In the case of `C=C(C)C#C[C@@H]1C[C@@H](O)[C@@H](Cl)[C@H](O)[C@@H]1O` [Compound 1, Acrucipentyn A], the “effect on LDH release (in words)” value [1] is reported as “greatest effect”, the “decrease of sortase A activity” value [2] is reported as 18% and the “inhibition of biofilm formation” value ([3]; concentrations of 12.5–100 μM, respectively) is reported as 50–70%. The “antimicrobial effect against S. aureus, ranking in words” value [4] was “most pronounced antimicrobial effects”, the inhibition at 12.5 µM ([4]; Staphylococcus aureus, ATCC21027, 12.5 μM, read-out: antimicrobial activity (inhibition of S. aureus growth)) was ≤ 50% and the inhibition at 100 µM [4, 9] was 60%.
In the case of flavuside B, the “S. aureus biofilm formation (in words)” value [5] is listed as “able to inhibit”, the “sortase A enzymatic activity (in words)” value [6] is listed as “inhibitor of sortase A enzymatic activity” and the “protection of HaCaT keratinocytes in co-culture model (in words)” value [7] is listed as “protect HaCaT keratinocytes against S. aureus infection”. For the same molecule, the “S. aureus growth (in words)” value [8] was “able to inhibit”.
With `C=C(C)C#CC1=C[C@@H](O)[C@@H]2O[C@@H]2[C@@H]1O` (relative stereo) [Compound 6, Acrucipentyn F] the “effect on sortase A enzymatic activity (in words)” value [2] was “less significant effects”, the “concentration down to which a high level of inhibition of biofilm formation is kept” value [3] was 25 µM and the “formation of biofilms (in words)” value [3] was “almost absent”. The “antimicrobial effect against S. aureus, ranking in words” value [4] was “most pronounced antimicrobial effects”, the “inhibition of S. aureus growth (in words)” value ([4]; 100 μM) was “almost completely inhibited” and the “change of antimicrobial activity on decrease of concentration” value [4] was “halved”.
In the case of `C=C(C)C#CC1=C[C@@H](O)[C@@H](Cl)[C@H](O)[C@@H]1O` (relative stereo) [Compound 4, Acrucipentyn D], the “effect on LDH release (in words)” value [1] is reported as “greatest effect; also recorded: significant activity”, the “effect on sortase A enzymatic activity (in words)” value [2] is reported as “less significant effects” and the “formation of biofilms (in words)” value [3] is reported as “almost absent”. For the same molecule, the “change of effect on biofilm formation when diluted twice” value ([3]; diluted twice from 100 μM) was “halved” and the inhibition at 100 µM [4, 9] was ≤ 50%.
In the case of `C=C(C)C#C[C@@H]1C[C@H](O)[C@H](O)[C@@H](Cl)[C@@H]1O` (relative stereo) [Compound 3, Acrucipentyn C], the “time-dependent inhibitory effect on sortase A activity” value ([2]; 60 min data acquisition) is reported as “detected throughout the entire period of data acquisition”, the “decrease of sortase A activity” value [2] is reported as 30% and the “concentration down to which a high level of inhibition of biofilm formation is kept” value [3] is reported as 12.5 µM. For the same molecule, the “formation of biofilms (in words)” value [3] was “almost absent”, the inhibition at 100 µM [4, 9] was 50% and the “change of antimicrobial activity on decrease of concentration” value [4] was “two-fold decrease in activity”.
